# According to article PMC9601670, “Solubility Enhancement, Formulation Development, and Antibacterial Activity of Xanthan-Gum-Stabilized Colloidal Gold Nanogel of Hesperidin against Proteus vulgaris” (Gels, 2022):
# Experiments:
# [1] = Solubility study of HSP (shake flask); assay type: physicochemical; details: for Hesperidin Solubility: shaken 24 h, room temperature
# Experimental: The solubility of HSP was determined by adopting the standard shake flask technique according to the method described by Majumdar and colleagues. The screening of the solution was performed by evaluating the solubility of HSP (10% (w/v) with respect to pH solution. To perform this experiment, 10% w/v of HSP was added to a glass vial containing 5 mL of the chosen solvent and tightly sealed. To ensure homogeneous mixing, the samples were shaken continuously for 24 h in a water bath at room temperature and 50 rpm. After 24 h, samples were centrifuged at 4500 rpm and HSP was assayed in the supernatant. Solubility was determined in water and in buffers with pH values ranging from 1.2 to 6.8. In addition, the effect of XA-stabilized AuNPs on the solubility of hesperidin was examined to determine by how much the solubility was increased.
# [2] = system: Proteus vulgaris (MTCC 7299); test: Minimum inhibitory concentration (microtiter plate dilution); assay type: cell-based; details: P. vulgaris MTCC 7299, 37 °C, 24 h, absorbance 640 nm; method: concentration that inhibited 50% of bacterial growth
# Experimental: Briefly, stock solutions of XA@AuNPs gel and HSP@XA@AuNPs gel were prepared in water to ensure complete solubilization at a concentration of 1 mg/mL. A total of 100 µL of nutrient broth and Sabouraud dextrose broth was added to wells 1 to 10. XA@AuNPs gel and HSP@XA@AuNPs gel samples (100 µL) were added to the first well. The solution was serially diluted from well 1 to well 10, while 100 µL from well 10 was discarded. Then 100 µL of the bacterial suspension was added to all dilution wells from well 1 to well 10. The overnight bacterial suspension (100 µL) was added to well 11, and 100 µL of sterile broth was added to serve as a positive control or growth control, while 200 µL of sterile nutrient broth and Sabouraud dextrose broth in well 12 served as a negative control or sterility control. The plate was incubated at 37 °C for 24 h. After incubation, absorbance in each well was measured using an ELISA reader (Erba) at a wavelength of 640 nm. The procedure described above was performed for each microbial strain. The concentration of the sample and standard that inhibited 50% of bacterial growth was determined for all microorganisms. All tests were performed in triplicate to minimize error.
compound,measurement,setting,value
"COc1ccc([C@@H]2CC(=O)c3c(O)cc(O[C@@H]4O[C@H](CO[C@@H]5O[C@@H](C)[C@H](O)[C@@H](O)[C@H]5O)[C@@H](O)[C@H](O)[C@H]4O)cc3O2)cc1O [HSP, hesperidin]",Hesperidin Solubility,[1]; Water,4.09 ± 0.20 µg/mL
same,Hesperidin Solubility,[1]; XA-stabilized AuNPs as solvent,62.23 ± 3.1 µg/mL
same,Solubility increase by addition of XA-stabilized AuNPs compared to water,[1]; XA-stabilized AuNPs vs water,15 fold
same,Hesperidin Solubility,[1]; pH 1.2 buffer,2.44 ± 0.12 µg/mL
same,Hesperidin Solubility,[1]; pH 5.0 buffer,3.42 ± 0.17 µg/mL
same,Hesperidin Solubility,[1]; pH 6.8 buffer,6.19 ± 0.30 µg/mL
same,MIC,[2],9.2 µg/mL
